Assay results from US12630523B2, “Isoquinoline derivatives for use as antiviral and antitumour agents” (priority 2021, dated 2026).
Values joined by “and” are separate entries in the source; they are usually repeats but may differ in a detail not shown here. Identical values can stand only once.

What was measured:
HPV16 E7 protein = experiment: Western blot of E7 steady state level in CaSki cells; assay type: cell-based; settings: 10 μM, up to 24 hours
Method: B) For cells in cell culture the following procedure for the preparation of a total cell extract is used. Freshly seeded cells are grown for 24 hours to obtain 65-75% confluency (corresponds for CaSki cells to a plating of approx. 2×10^6 cells/10 cm Ø cell culture dish). Cell culture dishes with medium are out on ice for 5 minutes.
Lysed cells are scraped off the dish and transfers to microcentrifuge tubes, followed by 2×10 sec sonication to complete cell lysis at room temperature. The samples are heated at 96° C. for 10 min and centrifuged for 5 min at 12000 g at room temperature.
Endogenous E7 proteins are rigid, tightly folded molecules and are bound only transiently onto […] membranes during protein blotting procedures, in particular employing semidry methods. Thus, for protein blotting a buffer system containing 40% (v/v) of Methanol is used. These buffers tend to be unstable and therefore freshly prepared solutions need to be used. E7 antibodies are used in TBET at pH7.8. Under these conditions western blot transfer is not complete for most other proteins. If staining of different proteins of the same gel is done, the gel is divided prior to blotting, 40% Methanol is used in the transfer buffer for E7 and a transfer buffer containing 20% Methanol is used for most of the other markers. […]

[1] = tested on: patient derived SARS-2 Coronavirus (COVID19); experiment: Inhibition of Sars-CoV2 replication by RNA qPCR analysis in Vero E6 cells; assay type: cell-based, SARS-CoV-2; settings: 7.5 μM, supernatants 3 days after infection, n3
Method: Vero E6 cells were pre-incubated with the compounds at a concentration of 7.5 μM. The cells were infected with a patient derived SARS-2 Coronavirus (COVID19). Cellular supernatants were collected 3 days after infection and centrifuged at 2000 rpm for 5 min to remove detached cells. Viral RNAs were extracted using a MagNA Pure 24 system (Roche, Germany). SARS-CoV-2 RNA genomes were quantified with the TIB MOLBIOL LightMix Assay SARS-CoV-2 RdRP RTqPCR assay kit with RNA Process Control PCR Kit (Roche). The PCR reaction setup was performed using a BRAND LHS laboratory robot to ensure quality. The amplification was performed with a LightCycler 480 II (Roche). Method used in FIG. 10.
SARV-CoV-2 antiviral activity by of VSP034 and VSP035 (n3; number of repeat of the assay at each condition). The results are shown in for DMSO (1), 7.5 μM VSP034 (2) and 7.5 μM VSP035 (3), y axis logarithmic scale. […] (FIG. 9)

[2] = Pharmacokinetics of OC246 after single oral administration; assay type: in vivo, female NMRI mice; settings: single oral 50 mg/kg
Method: Pharmacokinetics were assessed for OC246 after single oral (p.o.) administration in female NMRI mice. The compound OC246 was suspended at 50 mg/kg with Lipoid S100 and Myritol 318. Oral dose was 50 mg/kg, Final Concentration 10 mg/ml and Administration Volume 5.0 ml/kg. Blood samples were taken from three mice at individual time points after 0.25, 0.5, 1, 2, 4, 6, 8, 16, and 24 hours from administration, and analyzed using HPLC and mass-spectroscopic bioanalytical methods.
obs: observed; tmax: time point at Cmax; tlast: time at last quantifiable concentration; Cmax: maximum observed concentration; Clast: last quantifiable concentration; SE: standard error; AUClast: area under the concentration-time curve (AUC) calculated with trapezoidal rule between dosing time to the last measurement time point with a conc. value above the lower limit of quantification; AUCinf(obs): AUC calculated using the trapezoidal rule from 0 hours to infinity; AUC % extrapol: percentage of AUCinf(obs) that is due to the extrapolation from tlast to infinity; Rsq: goodness of fit for the determination λz in the terminal elimination phase; λz(Lambda_z): terminal elimination rate constant (of at least three last measured concentrations); t1/2: apparent terminal elimination half-life; CLobs: observed total (systemic) body clearance; Vz_obs: apparent volume of distribution based on AUClast and λz.

CaSki cells = experiment: Cell cycle analysis using Propidium-Iodide staining (flow cytometry); assay type: cell-based, human; settings: 48 hour incubation; for A*/5 μM (apoptosis as measured from total SUB G1 content) / A*/10 μM (apoptosis as measured from total SUB G1 content): no treatment 15.0; for G2/5 μM / G1/5 μM / G2/10 μM / G1/10 μM: cell cycle distribution; for G2/5 μM / G2/10 μM: no treatment 15.6; for G1/5 μM / G1/10 μM: no treatment 53.3
Method: Propidium-Iodide (PI) DNA staining is performed to facilitate cell cycle analysis. For PI-DNA staining, fixed cells and eventually antibody-stained cells are resuspended in 450 μl of PBS (per 10^6 cells) and incubated with 100 μg/ml RNase (stock 1 mg/ml, in PBS) for 10 minutes at 37° C. Cells are then incubated with 5 μg/106 cells of PI (stock 1 mg/ml in PBS) for 10 minutes at room temperature. Samples are stored at 4° C. until CF analysis.
CaSki cells were incubated with various compounds and cell cycle distribution of the cells was assessed using Propidium-Iodide staining.
In order to analyze the cytostatic versus the cytotoxic effect of OC compounds, cell cycle profiles were analyzed in vitro after 48 hour incubations using Flow Cytometry as a read out. For this a cell cycle analysis from selected OC E7 degrader compounds was conducted in CaSki cells. Using 6 well plates, 1.5×10^5 cells were seeded for each well and grown over night at 37° C. 5% CO2. For analysis of the cell cycle behavior, cells were analyzed in the presence of propidium Iodide (PI^−) by flow cytometry (FC). Briefly, cells were detached by trypsin digestion, all supernatants were included in the analysis, and fixed with 70% ice cold ethanol and stored at 4° C. until FC analysis using PI^− staining (1 mg/ml). At least 7000 events were acquired for each sample.

[3] = female, NMRI, mouse, blood, mean

Row | SMILES | HPV16 E7 protein level, time course (HPV16 E7 protein) | HPV16 E7 protein level, time course (HPV16 E7 protein; listed as Vsp035) | reduction of virus load as determined by the PCR assay [1] | half-life ([2]; female, NMRI, mouse, blood) [h] | Tmax ([2]; female, NMRI, mouse, blood, Lipoid S100 and Myritol 318, mean) [h] | AUC(0-t) [2, 3] [ng·h/mL] | Cmax [2, 3] [ng/mL] | AUC(0-inf) ([2]; female, NMRI, mouse, blood, mean, read-out: AUCinf(obs)) [ng·h/mL] | concentration at 24 h ([2]; female, NMRI, mouse, blood, mean, read-out: Clast) [ng/mL] | AUC% extrapol (obs) [2] [%] | CLobs [2] [mL/min/kg] | Vz_obs [2] [L/kg] | λz (terminal elimination rate constant) [2] [h⁻¹] | tlast ([2]; mean) [h] | A*/5 μM (apoptosis as measured from total SUB G1 content) (CaSki cells) [%] | A*/10 μM (apoptosis as measured from total SUB G1 content) (CaSki cells) | G2/5 μM (CaSki cells) [%] | G1/5 μM (CaSki cells) [%] | G2/10 μM (CaSki cells) [%] | G1/10 μM (CaSki cells) [%]
1 | CN1CCC(CN2C(=O)c3ccccc3[C@H](C(=O)Nc3cccc(N4CCN(C)CC4)c3)[C@H]2c2ccc(C(F)(F)F)cc2)CC1 [VSP035, (3S,4S)-N-[3-(4-methylpiperazin-1-yl)phenyl]-2-[(1-methylpiperidin-4-yl)methyl]-1-oxo-3-[4-(trifluoromethyl)phenyl]-1,2,3,4-tetrahydroisoquinoline-4-carboxamide] | steady decline over time | stable e7 reduction | one order of magnitude | – | – | – | – | – | – | – | – | – | – | – | – | – | – | – | – | –
2 | Cc1ccc(CN2C(=O)c3ccccc3[C@H](C(=O)Nc3cccc(N4CCN(C)CC4)c3)[C@@H]2c2ccc(C(F)(F)F)cc2)cc1 [OC246, N-[3-(4-methylpiperazin-1-yl)phenyl]-2-[(4-methylphenyl)methyl]-1-oxo-3-[4-(trifluoromethyl)phenyl]-1,2,3,4-tetrahydroisoquinoline-4-carboxamide] | – | – | – | 2.25 | 2 | 11500 | 1740 | 11500 | 5.18 | 0.146 | 72.38 | 14.073 | 0.309 | 24.00 | 19.6 | 89.4% | 15.7 | 48.0 | 0.2 | 1.5
3 | CN1CCC(CN2C(=O)c3ccccc3[C@@H](C(=O)Nc3cccc(N4CCN(C)CC4)c3)[C@@H]2c2ccc(C(F)(F)F)cc2)CC1 (racemic) [OC974, (3R,4R)- and (3S,4S)-N-[3-(4-methylpiperazin-1-yl)phenyl]-2-[(1-methylpiperidin-4-yl)methyl]-1-oxo-3-[4-(trifluoromethyl)phenyl]-3,4-dihydroisoquinoline-4-carboxamide] | – | – | – | – | – | – | – | – | – | – | – | – | – | – | 19.5 | 82.9% and 81.8% | 9.9 | 49.6 | 0.8 | 8.7
